In US9657059B2, “Immune system modulators” (Canimguide Therapeutics AB, priority 2013, dated 2017):

Legend:
[1] = system: Artificial Cell Surface (ACS): biotinylated cell surface proteins of PBMCs; test: Adsorption of enzyme-fragmented dHSA peptides by artificial cell surface (ACS) column, MALDI-TOF; format: binding, human
Description: An artificial cell surface (ACS) was prepared by selectively biotinylating cell surface structures of PBMCs and after lysing the cells binding the biotinylated proteins to streptavidin columns (see Example 17 for further description of the ACS). The mixture of peptides obtained after trypsination was adsorbed by ACS and the binding peptides were identified by comparing adsorbed and unabsorbed peptide solutions using the MALDI TOF ms technique. Based on their degree of binding and their spatial relation to previously identified immunoregulatory structures, four new peptides were selected to be synthesized and investigated for their immunoregulatory activity, primarily the effect on the proliferative response to IL-2.
First, biotinylated cell surface proteins were prepared. Buffy coats generated from 450 ml blood each were collected from 4 healthy donors. Erythrocytes were removed by sedimentation on 2% dextran T500 solution (Amersham Pharmacia Biotech AB, Uppsala Sweden) in 0.9% NaCl. Mononuclear cells (PBMC) were then isolated by Ficoll-Paque Plus (GE Healthcare BioscienceAB Sweden) density gradient centrifugation. The PBMCs were then suspended in phosphate buffered saline (PBS) containing Ca and Mg (GIBCO) at a concentration of 10×10^6/ml. EZ Link Sulfo-NHS-biotin (Pierce USA) was added at a final concentration of 0.2 mg/ml and the mixture incubated on a shaker at room temperature for 10 min. Excess biotin was then removed by washing the PBMC in PBS. Biotinylated PBMC were then lysed by adding 1.0 ml ice-cold lysing buffer (50 mM Tris-HCL, pH 7.5, with 0.15 MNaCl, 5 mM MgCl2 containing 100 mM Octyl glucoside and 1 mM Phenylmethylsulfonyl fluoride) per 2×10^7 pelleted cells with gentle shaking, then incubated for 30 min. on ice. Debris was removed by centrifugation at 5000×g at 4° C. for 10 min and the supernatants were collected and pooled from all four donors. The lysate was then stored at −70° C. in polypropylene plastic tubes.
This amount of lysate corresponds to 36×10^7 mononuclear cells. It was added to a 1 ml Hitrap Streptavidin HP affinity column (Amersham Biosciences). To block possible remaining free biotin, 5 ml of 0.1 M glycine (Sigma) was added to the column. Unsaturated streptavidin on the column was then reacted with 150 ug biotin (Sigma) in binding buffer. The column was carefully washed with PBS and stored in PBS with 0.1% NaN3 at 4° C. until use.
27 ml biotinylated cell lysate in binding buffer (corresponding to 54×10^7 mononuclear cells) was added to 1.5 ml washed Streptavidin Sepharose HP (Amersham Biosciences). To block possible remaining free biotin, 25 ml of 0.1 M glycine (Sigma) was added to the Streptavidin Sepharose. Unsaturated streptavidin was then reacted with 225 ug biotin (Sigma) in binding buffer. The Streptavidin Sepharose was carefully washed in PBS. One ml of the biotinylated cell lysate coupled Streptavidin Sepharose was then packed in an empty column (Tricorn Empty High Performance Column, Amersham Bioscience) and washed with phosphate buffered saline (PBS) containing Ca^2+ and Mg^2+ (GIBCO).
Digestion with trypsin or ASP-N was performed as follows. Freeze dried dHSA (0.5 mg) was reconstituted in 25 mM NH4HCO3, pH 8, containing […] sequencing grade modified trypsin (Promega Corporation, WI) or […] Endoproteinase ASP-N(Sigma) and incubated at 37° C. overnight. To remove unfragmented albumin and enzyme, the sample was ultra filtered through an Amicon Ultra 4 (mw cut-off of 5000) or a Centriplus (mw cut-off 10000) centrifugal filter (Millipore AB, Solna, Sweden). The filtrate, containing fragmented dHSA without enzymes, was collected and diluted with PBS with Ca and Mg (GIBCO).
dHSA was trypsinated, and the mixture of peptides obtained after trypsination was adsorbed by ACS. Two ml of enzyme-fragmented dHSA in PBS, corresponding to a total of 0.2 mg protein, was passaged over the ACS column. […]

immune cells = test: Binding of albumin fragments to immune cells on the Artificial Cell Surface column (ACS), MALDI-TOF; design: species or system human
Description: The existence of albumin sequences having neo-structures that bind to immune cells was identified using a human ex vivo model based on affinity chromatography over an “Artificial Cell Surface Column” (ACS). The effect of different albumin fragments on IL-2 induced proliferation of human immune cells (PBMCs) was analyzed in the ACS system (see Example 9). Briefly, PBMCs were cultured for seven days in the presence of IL-2 and the various synthetically prepared albumin fragments. Proliferation was measured as incorporation of ^3H thymidine during the final 18 hours.
Some of these fragments can have immunomodulatory activity similar to P3028, can bind to immune cells similar to P3028, and/or can bind to immunomodulatory antibodies that recognized P3028. […] Table 1 provides a listing of trypsin-generated fragments of albumin, which bind to immune cells in the ACS system, as detected by MALDI-TOF analysis.
[…] Again, the immune cell binding peptides were identified by comparing adsorbed and unadsorbed peptide solutions using the MALDI TOF technique.

[2] = trypsin-generated albumin fragments
[3] = trypsin-generated albumin fragments, MALDI-TOF
[4] = Asp-N-generated albumin fragments
[5] = Asp-N-generated fragments of denatured human serum albumin, MALDI TOF

Substance	Percent Absorbed [1, 2] [%]	Percent Absorbed (immune cells; [3]) [%]	Percent Absorbed [1, 4] [%]	Percent Absorbed (immune cells; [5]) [%]
194 (KYLYEIAR; listed as Homo sapiens) [compound 194]	71	71	–	–
195 (KVPQVSTPTLVEVSR; listed as Homo sapiens) [compound 195]	64	64	–	–
196 (VFDEFKPLVEEPQNLIK; listed as Homo sapiens) [compound 196]	60	60	–	–
197 (VPQVSTPTLVEVSR; listed as Homo sapiens) [compound 197]	59	59	–	–
198 (RPCFSALEVDETYVPK; listed as Homo sapiens) [compound 198]	42	42	–	–
199 (FQNALLVR; listed as Homo sapiens) [compound 199]	41	41	–	–
200 (SLHTLFGDK; listed as Homo sapiens) [compound 200]	36	36	–	–
201 (LKECCEKPLLEK; listed as Homo sapiens) [compound 201]	36	36	–	–
202 (LCTVATLR; listed as Homo sapiens) [compound 202]	35	35	–	–
203 (YLYEIAR; listed as Homo sapiens) [compound 203]	34	34	–	–
204 (CCAAADPHECYAK; listed as Homo sapiens) [compound 204]	32	32	–	–
205 (AAFTECCQAADK; listed as Homo sapiens) [compound 205]	29	29	–	–
206 (CCTESLVNR; listed as Homo sapiens) [compound 206]	26	26	–	–
207 (QEPERNECFLQHK; listed as Homo sapiens) [compound 207]	25	25	–	–
208 (AVMDDFAAFVEK; listed as Homo sapiens) [compound 208]	23	23	–	–
209 (NECFLQHK; listed as Homo sapiens) [compound 209]	77	22	–	–
210 (QNCELFEQLGEYK; listed as Homo sapiens) [compound 210]	20	20	–	–
211 (QEPERNECFLQHK; listed as Homo sapiens) [compound 211]	18	18	–	–
212 (VHTECCHGDLLECADDR; listed as Homo sapiens) [compound 212]	13	13	–	–

Substance	Percent Absorbed [1, 2] [%]	Percent Absorbed (immune cells; [3]) [%]	Percent Absorbed [1, 4] [%]	Percent Absorbed (immune cells; [5]) [%]
213 (FKDLGEENFK; listed as Homo sapiens) [compound 213]	8	8	–	–
214 (YICENQDSISSK; listed as Homo sapiens) [compound 214]	3	3	–	–
215 (LDELRDEGK; listed as Homo sapiens) [compound 215]	2	2	–	–
216 (DDNPNLPR; listed as Homo sapiens) [compound 216]	1	1	–	–
217 (DHVKLVNEVTEFAKTCVA; listed as Homo sapiens) [compound 217]	–	–	100	100
218 (DDKETCFAEEGKKLVAASQAALGL; listed as Homo sapiens) [compound 218]	–	–	100	100
219 (DRVTKCCTESLVNRRPCFSALEV; listed as Homo sapiens) [compound 219]	–	–	87	87
220 (DETYVPKEFNAETFTHA; listed as Homo sapiens) [compound 220]	–	–	86	86
221 (DSISSKLKECCEKPLLEKSHCIAEVEN; listed as Homo sapiens) [compound 221]	–	–	65	65
222 (DKLCTVATLRETYGEM; listed as Homo sapiens) [compound 222]	–	–	65	65
223 (YSVVLLLRLAKTYETTLEKCCAAADPHECYAKVF; listed as Homo sapiens) [compound 223]	–	–	100	100
224 (KLCTVATLRETYGEMADCCAKQEPERNECFLQHK; listed as Homo sapiens) [compound 224]	–	–	100	100
225 (ICTLSEKERQIKKQTALVELVKHKPKATKEQLKAVM; listed as Homo sapiens) [compound 225]	–	–	100	100
226 (LAKYICENQDSISSKLKECCEKPLLEKHCIAEVEN; listed as Homo sapiens) [compound 226]	–	–	100	100
227 (VFLGMFLYEYARRHPDYSVVLLLRLAKTYETTLEKCCAAA; listed as Homo sapiens) [compound 227]	–	–	100	100
228 (LGEENFKALVLIAFAQYLQQCPFEDHVKLVNEVTEFAKTCVA; listed as Homo sapiens) [compound 228]	–	–	100	100
229 (RVTKCCTESLVNRRPCFSALEVDETYVPKEFNAETFTFHA; listed as Homo sapiens) [compound 229]	–	–	100	100
230 (YLSVVLNQLCVLHEKTPVSDRVTKCCCTESLVNRRPFSALEV; listed as Homo sapiens) [compound 230]	–	–	37	37
